The record followed here is patent US20240343722A1 (VIFOR (INTERNATIONAL) AG, priority 2021, published 2024).

pIC50: −log10 of the molar value.

In the test the target is T1, ferroportin (Fpn) (Mus musculus, UniProt Q9JHI9).
T1 construct: endogenous in cells; host or cells: J774 mouse macrophage cell line, induced with Fe(III)NTA
T1 sequence (Q9JHI9 1-570): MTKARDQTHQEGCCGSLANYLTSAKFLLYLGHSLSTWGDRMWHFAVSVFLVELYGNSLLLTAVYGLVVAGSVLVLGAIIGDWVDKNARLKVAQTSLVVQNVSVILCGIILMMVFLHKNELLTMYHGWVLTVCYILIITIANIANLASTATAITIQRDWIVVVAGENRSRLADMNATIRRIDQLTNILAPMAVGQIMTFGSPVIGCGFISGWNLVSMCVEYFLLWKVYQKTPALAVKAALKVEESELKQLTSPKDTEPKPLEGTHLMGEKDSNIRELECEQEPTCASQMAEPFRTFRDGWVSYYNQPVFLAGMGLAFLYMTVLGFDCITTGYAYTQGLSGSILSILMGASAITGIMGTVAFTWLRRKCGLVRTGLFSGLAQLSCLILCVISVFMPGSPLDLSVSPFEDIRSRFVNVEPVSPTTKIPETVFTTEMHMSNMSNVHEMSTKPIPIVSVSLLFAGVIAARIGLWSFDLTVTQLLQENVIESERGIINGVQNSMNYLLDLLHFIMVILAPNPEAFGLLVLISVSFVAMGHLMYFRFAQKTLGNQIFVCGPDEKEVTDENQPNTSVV
The test can be described thus: Hepcidin Internalization Assay (J774). The format is cell-based. Conditions: Average (AVE) IC50 of multiple measurements; inhibition of TMR-hepcidin (25 nM) internalization into J774 cells. An excerpt: This cellular assay allows quantification of the binding of hepcidin to ferroportin (Fpn) through microscopic detection of internalization of a fluorescently labeled hepcidin into J774 cells. […] Binding of hepcidin to Fpn triggers internalization and degradation of both hepcidin and Fpn. […] Therefore, microscopic detection of cell-associated TMR fluorescence is a measure of hepcidin binding to Fpn and internalization of hepcidin and Fpn. If TMR-hepcidin is prevented from binding to Fpn, cellular TMR fluorescence remains low (Durrenberger et al, 2013). The effect of small molecular weight Fpn inhibitor compounds in this assay was evaluated in vitro as described below. […] After removal of the paraformaldehyde solution, cells were washed 3 times with PBS leaving 100 μl per well and the plates were sealed with foil plate seal. TMR (530-550 nm excitation/575-625 nm emission/400 ms exposure time) and Hoechst 33342 (360-370 nm excitation/420-460 nm emission /10 ms exposure time) fluorescence images were acquired using a […] imager (Olympus) with a 20× high NA objective. […] The acquired image data was analysed with the […] analysis software. […] IC50 values were calculated with the Sum(Mean) raw data using “log(inhibitor) vs. response” curve fitting of Prism 5 software (GraphPad Software Inc., version 5.02). For each data set the fit of the “log(inhibitor) vs. response (three parameters)” model was compared to the fit of the “log(inhibitor) vs. response - Variable slope (four parameters)” model and the IC50 data of the preferred model was used.
`COCCn1c(CCNCCc2nc(C(=O)NCc3ncccc3OC)co2)nc2cc3c(cc21)OCCO3` [Example 67, 2-(2-((2-(1-(2-methoxyethyl)-6,7-dihydro-1H-[1,4]dioxino[2′,3′:4,5]benzo[1,2-d]imidazol-2-yl)ethyl)amino)ethyl)-N-((3-methoxypyridin-2-yl)methyl)oxazole-4-carboxamide]: the negative logarithm of the IC50 (pIC50) – broadly, the IC50 on a negative log10 scale, so that one unit is a factor of ten – was 8.37.

`COc1cccnc1CNC(=O)c1coc(CCNCCc2nc3cc4c(cc3n2CC(F)F)OCCO4)n1` [Example 68, 2-(2-((2-(1-(2,2-difluoroethyl)-6,7-dihydro-1 H-[1,4]dioxino[2′,3′:4,5]benzo[1,2-d]imidazol-2-yl)ethyl)amino)ethyl)-N-((3-methoxypyridin-2-yl)methyl)oxazole-4-carboxamide] showed a pIC50 of 8.15.

`COCCn1c(CCNCCc2nc(C(=O)NCc3ncccc3F)co2)nc2cc3c(cc21)OCO3` [Example 69, N-((3-fluoropyridin-2-yl)methyl)-2-(2-((2-(5-(2-methoxyethyl)-5H-[1,3]dioxolo[4′,5′:4,5]benzo[1,2-d]imidazol-6-yl)ethyl)amino)ethyl)oxazole-4-carboxamide] showed a pIC50 of 8.52.

The molecule `COCCn1c(CCNCCc2nc(C(=O)NCc3ncccc3OC)co2)nc2cc3c(cc21)OCO3` [Example 70, 2-(2-((2-(5-(2-methoxyethyl)-5H-[1,3]dioxolo[4′,5′:4,5]benzo[1,2-d]imidazol-6-yl)ethyl)amino)ethyl)-N-((3-methoxypyridin-2-yl)methyl)oxazole-4-carboxamide] gave a negative-log IC50 (pIC50) of 8.41.

Regarding `O=C(NCc1ncccc1F)c1coc(CCNCCc2nc3cc4c(cc3n2CC(F)F)OCCO4)n1` [Example 71, 2-(2-((2-(1-(2,2-difluoroethyl)-6,7-dihydro-1 H-[1,4]dioxino[2′,3′:4,5]benzo[1,2-d]imidazol-2-yl)ethyl)amino)ethyl)-N-((3-fluoropyridin-2-yl)methyl)oxazole-4-carboxamide], the pIC50 was 8.15.

`COc1cccc(-n2c(CCNCCc3nc(C(=O)NCc4ncccc4F)co3)nc3cc(OC)c(OC)cc32)c1` [Example 72, 2-(2-((2-(5,6-dimethoxy-1-(3-methoxyphenyl)-1H-benzo[d]imidazol-2-yl)ethyl)amino)ethyl)-N-((3-fluoropyridin-2-yl)methyl)oxazole-4-carboxamide]: the negative logarithm of the IC50 (pIC50) was 7.46.

For the molecule `CC(C)OCCn1c(CCNCCc2nc(C(=O)NCc3ncccc3F)co2)nc2cc3c(cc21)OCCO3` [Example 73, N-((3-fluoropyridin-2-yl)methyl)-2-(2-((2-(1-(2-isopropoxyethyl)-6,7-dihydro-1 H-[1,4]dioxino[2′,3′:4,5]benzo[1,2-d]imidazol-2-yl)ethyl)amino)ethyl)oxazole-4-carboxamide], the pIC50 was 8.59.

`O=C(NCc1ncccc1F)c1coc(CCNCCc2nc3cc4c(cc3n2CCN2CCCCC2)OCCO4)n1` [Example 74, N-((3-fluoropyridin-2-yl)methyl)-2-(2-((2-(1-(2-(piperidin-1-yl)ethyl)-6,7-dihydro-1H-[1,4]dioxino[2′,3′:4,5]benzo[1,2-d]imidazol-2-yl)ethyl)amino)ethyl)oxazole-4-carboxamide] gave a pIC50 of 8.31.

`COc1cccc(-n2c(CCNCCc3nc(C(=O)NCc4ncccc4F)co3)nc3cc4c(cc32)OCO4)c1` [Example 75, N-((3-fluoropyridin-2-yl)methyl)-2-(2-((2-(5-(3-methoxyphenyl)-5H-[1,3]dioxolo[4′,5′:4,5]benzo[1,2-d]imidazol-6-yl)ethyl)amino)ethyl)oxazole-4-carboxamide] gave a negative logarithm of the IC50 (pIC50) of 8.89.

Regarding `COc1cccnc1CNC(=O)c1coc(CCNCCc2nc3cc4c(cc3n2CCN(C)C)OCCO4)n1` [Example 76, 2-(2-((2-(1-(2-(dimethylamino)ethyl)-6,7-dihydro-1 H-[1,4]dioxino[2′,3′:4,5]benzo[1,2-d]imidazol-2-yl)ethyl)amino)ethyl)-N-((3-methoxypyridin-2-yl)methyl)oxazole-4-carboxamide], the negative-log IC50 (pIC50) is 7.89.

`CN(C)CCn1c(CCNCCc2nc(C(=O)NCc3ncccc3F)co2)nc2cc3c(cc21)OCCO3` [Example 77, 2-(2-((2-(1-(2-(dimethylamino)ethyl)-6,7-dihydro-1 H-[1,4]dioxino[2′,3′:4,5]benzo[1,2-d]imidazol-2-yl)ethyl)amino)ethyl)-N-((3-fluoropyridin-2-yl)methyl)oxazole-4-carboxamide] showed a pIC50 of 8.29.

Turning to `O=C(NCc1ncccc1F)c1coc(CCNCCc2nc3cc4c(cc3n2CCN2CCOCC2)OCCO4)n1` [Example 81, N-((3-fluoropyridin-2-yl)methyl)-2-(2-((2-(1-(2-morpholinoethyl)-6,7-dihydro-1 H-[1,4]dioxino[2′,3′:4,5]benzo[1,2-d]imidazol-2-yl)ethyl)amino)ethyl)oxazole-4-carboxamide], the negative logarithm of the IC50 (pIC50) is 8.40.

`O=C(NCc1ncccc1F)c1coc(CCNCCc2nc3cc4c(cc3n2-c2ccccc2)OCO4)n1` [Example 82, N-((3-fluoropyridin-2-yl)methyl)-2-(2-((2-(5-phenyl-5H-[1,3]dioxolo[4′,5′:4,5]benzo[1,2-d]imidazol-6-yl)ethyl)amino)ethyl)oxazole-4-carboxamide]: the pIC50 is 8.70.

`O=C(NCc1ncccc1F)c1coc(CCNCCc2nc3cc4c(cc3n2-c2ccccc2)OCCO4)n1` [Example 83, N-((3-fluoropyridin-2-yl)methyl)-2-(2-((2-(1-phenyl-6,7-dihydro-1 H-[1,4]dioxino[2′,3′:4,5]benzo[1,2-d]imidazol-2-yl)ethyl)amino)ethyl)oxazole-4-carboxamide] showed a negative-log IC50 (pIC50) of 8.72.

As for `CN1CCN(CCn2c(CCNCCc3nc(C(=O)NCc4ncccc4F)co3)nc3cc4c(cc32)OCCO4)CC1` [Example 84, N-((3-fluoropyridin-2-yl)methyl)-2-(2-((2-(1-(2-(4-methylpiperazin-1-yl)ethyl)-6,7-dihydro-1H-[1,4]dioxino[2′,3′:4,5]benzo[1,2-d]imidazol-2-yl)ethyl)amino)ethyl)oxazole-4-carboxamide], the negative logarithm of the IC50 (pIC50) is 6.82.

Turning to `O=C(NCc1ncccc1F)c1coc(CCNCCc2nc3cc(C#Cc4ccccn4)ccc3n2-c2ccccc2)n1` [Example 85, N-((3-fluoropyridin-2-yl)methyl)-2-(2-((2-(1-phenyl-5-(pyridin-2-ylethynyl)-1H-benzo[d]imidazol-2-yl)ethyl)amino)ethyl)oxazole-4-carboxamide], the pIC50 was 8.11.

The molecule `COCCn1c(CCNCCc2nc(C(=O)NCc3ncccc3F)co2)nc2cc(C#Cc3ccccn3)ccc21` [Example 86, N-((3-fluoropyridin-2-yl)methyl)-2-(2-((2-(1-(2-methoxyethyl)-5-(pyridin-2-ylethynyl)-1 H-benzo[d]imidazol-2-yl)ethyl)amino)ethyl)oxazole-4-carboxamide] gave a pIC50 of 8.39.

`CCCCn1c(CCNCCc2nc(C(=O)NCc3ncccc3F)co2)nc2cc(OC)c(OC)cc21` [Example 87, 2-(2-((2-(1-butyl-5,6-dimethoxy-1 H-benzo[d]imidazol-2-yl)ethyl)amino)ethyl)-N-((3-fluoropyridin-2-yl)methyl)oxazole-4-carboxamide] gave a negative logarithm of the IC50 (pIC50) of 7.77.

`O=C(NCc1ncccc1F)c1coc(CCNCCc2nc3cc4c(cc3n2CCOC2CCCCC2)OCCO4)n1` [Example 88, 2-(2-((2-(1-(2-(cyclohexyloxy)ethyl)-6,7-dihydro-1H-[1,4]dioxino[2′,3′:4,5]benzo[1,2-d]imidazol-2-yl)ethyl)amino)ethyl)-N-((3-fluoropyridin-2-yl)methyl)oxazole-4-carboxamide]: the negative-log IC50 (pIC50) is 9.05.

Regarding `O=C(NCc1ncccc1F)c1coc(CCNCCc2nc3cc(C#Cc4ccccn4)ccc3n2CC2CC2)n1` [Example 89, 2-(2-((2-(1-(cyclopropylmethyl)-5-(pyridin-2-ylethynyl)-1 H-benzo[d]imidazol-2-yl)ethyl)amino)ethyl)-N-((3-fluoropyridin-2-yl)methyl)oxazole-4-carboxamide], the pIC50 was 8.40.

With `COc1ccc(-n2c(CCNCCc3nc(C(=O)NCc4ncccc4F)co3)nc3cc(OC)c(OC)cc32)cc1OC` [Example 90, 2-(2-((2-(1-(3,4-dimethoxyphenyl)-5,6-dimethoxy-1 H-benzo[d]imidazol-2-yl)ethyl)amino)ethyl)-N-((3-fluoropyridin-2-yl)methyl)oxazole-4-carboxamide], the pIC50 is 7.41.
